# Experimental data from patent US20060217340A1, “Methods and products for treating hypertension by modulation of TRPC3 channel activity” (University of Vermont and State Agricultural College, priority 2005, published 2006).
# How the values were obtained:
# TRPC6 = experiment: Western analysis of TRPC6 protein expression in arteries; type: cell-based, rat; conditions: cerebral arterial SMCs
# Protocol: (§1) Western Analysis. Arterial segments were homogenized in lysis buffer (5 minutes, 4° C.) containing (in mM): 40 CAPS, 1 DL-Dithiothreitol (DTT), 10 EDTA, 15 MgCl2, 115 NaCl, 1 NaOrthovanadate, 1 NaF, 2.5 Urea, and 0.25% deoxychlorate, 10% glycerol, 1% NP-40, 0.2% SDS, and 1:50 mammalian protease inhibitor cocktail (Sigma, St. Louis, Mo., USA). Equal amounts of sample protein were separated on a 10% polyacrylamide gel and transferred to a nitrocellulose membrane. The membranes were exposed to a TRPC3 or TRPC6 polyclonal antibody (anti-rabbit 1:200 dilution, Alomone Labs, Jerusalem, Israel) and a […] (GAPDH) monoclonal antibody (anti-mouse, 1:1000 dilution, Chemicon Labs, Temecula, Calif., USA). Alexa-Fluor 680® goat anti-rabbit (Molecular Probes, Eugene, Oreg., USA) and IRDyeTM800 anti-mouse (Rockland Immunochemicals, Gilbertsville, Pa., USA) were used to fluorescently label the TRPC3 and GAPDH antibodies respectively. The density of signals specific for the TRPC3 and GAPDH bands in a given lane on a membrane were measured after scanning the membrane with an Odyssey® infared imaging system (Li-COR Biosciences, Lincoln, Nebr., USA). Quantified amounts were normalized to a total protein amount lane on the polyacrylamide gel.
# (§2) Oligodeoxynucleotide Sequences and Reverse Permeabilization. […]
# [1] = tested on: glyceraldehyde dehydrogenase (GAPDH); experiment: Western analysis of GAPDH protein expression in cerebral artery; type: cell-based, rat; conditions: 3 days organ culture
# Protocol: as §1, §2
substance,measurement,setting,value
"5′-GAGAACCATGAACTGGAATA-3′ (SEQ ID: 9) and 5′-ACGACCAACACGACCAGACA-3′ (SEQ ID: 10) (phosphorothioate ends, further chemistry not given here) [TRPC3 antisense, antisense ODNs based on the rat TRPC3 gene; last five bases on the 5′ and 3′ end phosphorothioated]",effect on the expression of TRPC6,TRPC6,no effect
same,effect on the expression of GAPDH,[1],no effect
